The results in this text go back to ChEMBL document CHEMBL1135227, “Substituted 2-(R)-methyl piperazines as muscarinic M(2) selective ligands” (Bioorg Med Chem Lett, 2002).

The target in experiment [1] is T1, Muscarinic acetylcholine receptor M1 (Homo sapiens) (UniProt P11229).
T1 sequence (whole entry): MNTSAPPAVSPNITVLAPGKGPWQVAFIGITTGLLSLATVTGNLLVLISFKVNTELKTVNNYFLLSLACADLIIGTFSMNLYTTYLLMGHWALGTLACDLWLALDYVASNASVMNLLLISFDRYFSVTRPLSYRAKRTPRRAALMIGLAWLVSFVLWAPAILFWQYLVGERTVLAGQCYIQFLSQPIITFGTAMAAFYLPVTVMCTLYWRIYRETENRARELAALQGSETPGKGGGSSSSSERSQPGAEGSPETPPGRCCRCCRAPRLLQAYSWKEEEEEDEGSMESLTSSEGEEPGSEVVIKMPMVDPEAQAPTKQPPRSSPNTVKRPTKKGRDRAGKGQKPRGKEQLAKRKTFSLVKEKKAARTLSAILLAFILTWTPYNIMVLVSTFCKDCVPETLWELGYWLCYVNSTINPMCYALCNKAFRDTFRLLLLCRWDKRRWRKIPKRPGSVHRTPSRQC
As to the kind of experiment: Ratio of binding affinities at human cloned Muscarinic acetylcholine receptor M1 and human cloned Muscarinic acetylcholine receptor M2.

In experiment [2] the target is T2, Muscarinic acetylcholine receptor M2 (Homo sapiens, UniProt P08172).
T2 sequence (P08172 whole entry): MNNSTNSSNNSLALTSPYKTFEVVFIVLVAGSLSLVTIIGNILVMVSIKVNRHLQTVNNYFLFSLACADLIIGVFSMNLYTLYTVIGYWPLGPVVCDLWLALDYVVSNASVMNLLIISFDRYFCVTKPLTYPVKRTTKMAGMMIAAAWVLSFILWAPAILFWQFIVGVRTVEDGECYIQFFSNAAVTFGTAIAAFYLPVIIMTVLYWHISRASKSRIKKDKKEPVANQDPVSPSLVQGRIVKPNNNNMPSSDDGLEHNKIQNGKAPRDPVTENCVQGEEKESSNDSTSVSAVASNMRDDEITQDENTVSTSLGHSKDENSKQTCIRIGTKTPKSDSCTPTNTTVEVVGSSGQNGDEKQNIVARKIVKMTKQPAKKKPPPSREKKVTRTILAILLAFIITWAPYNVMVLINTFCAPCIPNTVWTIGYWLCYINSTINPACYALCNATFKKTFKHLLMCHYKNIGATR
As to the kind of experiment: Binding affinity against human cloned Muscarinic acetylcholine receptor M2.

The target in experiment [3] is T2, Muscarinic acetylcholine receptor M2. Put plainly: Compound was tested for its binding affinity against cloned human Muscarinic acetylcholine receptor M2.

For `COc1ccc(S(=O)(=O)c2ccc(C(C)N3CCN(C4CCCCC4)CC3)cc2)cc1` (stereo not given), the Ratio in experiment [1] was 10. For the molecule `C[C@@H]1CN(C2CCN(S(=O)(=O)c3ccccc3)CC2)CCN1[C@@H](C)c1ccc(S(=O)(=O)c2ccc3c(c2)OCO3)cc1`, the Ratio in experiment [1] came to 40. In addition, the affinity in experiment [2] corresponds to a Ki of 0.8 nM.

Regarding `CCS(=O)(=O)N1CCC(N2CCN([C@@H](C)c3ccc(S(=O)(=O)c4ccc5c(c4)OCO5)cc3)[C@H](C)C2)CC1`, the Ratio in experiment [1] was determined as 109. In experiment [2], the affinity, expressed as Ki, was 0.7 nM. In the same order, the values of `COc1ccc(S(=O)(=O)c2ccc([C@@H](C)N3CCN(C4CCCCC4)[C@@H](C)C3)cc2)cc1` are 10 and 0.04 nM. For `C[C@@H]1CN(C2CCCCC2)CCN1[C@H](C)c1ccc(S(=O)(=O)c2ccc3c(c2)OCO3)cc1`, the Ratio in experiment [1] is 30. For the same molecule, the affinity in experiment [2] corresponds to a Ki of 0.03 nM. The corresponding values for `CCCCS(=O)(=O)N1CCC(N2CCN([C@@H](C)c3ccc(S(=O)(=O)c4ccc5c(c4)OCO5)cc3)[C@H](C)C2)CC1` are 198 and 0.2 nM. Take `COc1ccc(S(=O)(=O)c2ccc(C(C#N)N3CCN(C4CCCCC4)C[C@@H]3C)cc2)cc1` (stereo not given in full): the Ratio in experiment [1] was found to be 5. The Ki in experiment [2] came to 16 nM. In the same order, the values of `CCCS(=O)(=O)N1CCC(N2CCN([C@@H](C)c3ccc(S(=O)(=O)c4ccc5c(c4)OCO5)cc3)[C@H](C)C2)CC1` are 281 and 0.2 nM. In the same order, the values of `C[C@@H]1CN(C2CCNCC2)CCN1[C@@H](C)c1ccc(S(=O)(=O)c2ccc3c(c2)OCO3)cc1` are 4 and 9 nM. The corresponding values for `C[C@@H]1CN(C2CCN(C(=O)c3ccccc3)CC2)CCN1[C@@H](C)c1ccc(S(=O)(=O)c2ccc3c(c2)OCO3)cc1` are 32 and 0.9 nM. For `COc1ccc(S(=O)(=O)c2ccc([C@H](C)N3CCN(C4CCCCC4)C[C@H]3C)cc2)cc1`, the Ratio in experiment [1] stood at 44. The molecule further registered a Ki in experiment [2] of 0.3 nM.

As to `COc1ccc(S(=O)(=O)c2ccc(CN3CCN(C4CCCCC4)C[C@H]3C)cc2)cc1`, the Ratio in experiment [1] is 23. The molecule further gave a Ki in experiment [2] of 0.3 nM. Take `COc1ccc(S(=O)(=O)c2ccc([C@@H](C)N3CCN(C4CCCCC4)[C@H](C)C3)cc2)cc1`: in experiment [1], the Ratio came out at 10. The Ki in experiment [2] is 0.14 nM. The corresponding values for `CCNC(=O)N1CCC(N2CCN([C@@H](C)c3ccc(S(=O)(=O)c4ccc5c(c4)OCO5)cc3)[C@H](C)C2)CC1` are 10 and 2.5 nM. Turning to `COc1ccc(S(=O)(=O)c2ccc([C@@H](C)N3CCN(C4CCCCC4)C[C@H]3C)cc2)cc1`, the Ratio in experiment [1] stood at 30. In experiment [2], affinity was put at a Ki of 0.15 nM. For `COc1ccc(S(=O)(=O)c2ccc(C(C#N)N3CCN(C4CCCCC4)C[C@H]3C)cc2)cc1` (stereo not given in full), in experiment [1], the Ratio turned out to be 36. This molecule also registered a Ki in experiment [3] of 0.16 nM. As for `CCCCC(=O)N1CCC(N2CCN([C@@H](C)c3ccc(S(=O)(=O)c4ccc5c(c4)OCO5)cc3)[C@H](C)C2)CC1`, the Ratio in experiment [1] came to 15. Further, in experiment [2], the affinity corresponds to a Ki of 1.3 nM.

With `C[C@@H]1CN(C2CCCCC2)CCN1[C@@H](C)c1ccc(S(=O)(=O)c2ccc3c(c2)OCO3)cc1`, the Ratio in experiment [1] came out at 61. The same molecule registered a Ki in experiment [2] of 0.03 nM.

The term Ki denotes the equilibrium dissociation constant of an inhibitor or competing ligand from its target. Read a low Ki as higher affinity.
